# Read-outs that look alike come from different tables or passages of the source.
# Legend:
# [1] = molecular target: T1, human AR (Homo sapiens, UniProt P10275); assay: cell-based; type: cell-based; details: for AR Antagonist CV-1 Cells Efficacy (%): % of maximal inhibition, fixed DHT at EC50; for AR agonist/antagonist profile (in words): co-transfection assay, summary of Tables 1-2; for AR Agonist CV-1 Cells Efficacy (%): percent maximal response relative to reference agonist DHT
# T1 construct: expressed in transfected cells; host or cells: CV-1 cells (African green monkey kidney fibroblasts), transient calcium phosphate transfection
# T1 sequence (P10275 1-920): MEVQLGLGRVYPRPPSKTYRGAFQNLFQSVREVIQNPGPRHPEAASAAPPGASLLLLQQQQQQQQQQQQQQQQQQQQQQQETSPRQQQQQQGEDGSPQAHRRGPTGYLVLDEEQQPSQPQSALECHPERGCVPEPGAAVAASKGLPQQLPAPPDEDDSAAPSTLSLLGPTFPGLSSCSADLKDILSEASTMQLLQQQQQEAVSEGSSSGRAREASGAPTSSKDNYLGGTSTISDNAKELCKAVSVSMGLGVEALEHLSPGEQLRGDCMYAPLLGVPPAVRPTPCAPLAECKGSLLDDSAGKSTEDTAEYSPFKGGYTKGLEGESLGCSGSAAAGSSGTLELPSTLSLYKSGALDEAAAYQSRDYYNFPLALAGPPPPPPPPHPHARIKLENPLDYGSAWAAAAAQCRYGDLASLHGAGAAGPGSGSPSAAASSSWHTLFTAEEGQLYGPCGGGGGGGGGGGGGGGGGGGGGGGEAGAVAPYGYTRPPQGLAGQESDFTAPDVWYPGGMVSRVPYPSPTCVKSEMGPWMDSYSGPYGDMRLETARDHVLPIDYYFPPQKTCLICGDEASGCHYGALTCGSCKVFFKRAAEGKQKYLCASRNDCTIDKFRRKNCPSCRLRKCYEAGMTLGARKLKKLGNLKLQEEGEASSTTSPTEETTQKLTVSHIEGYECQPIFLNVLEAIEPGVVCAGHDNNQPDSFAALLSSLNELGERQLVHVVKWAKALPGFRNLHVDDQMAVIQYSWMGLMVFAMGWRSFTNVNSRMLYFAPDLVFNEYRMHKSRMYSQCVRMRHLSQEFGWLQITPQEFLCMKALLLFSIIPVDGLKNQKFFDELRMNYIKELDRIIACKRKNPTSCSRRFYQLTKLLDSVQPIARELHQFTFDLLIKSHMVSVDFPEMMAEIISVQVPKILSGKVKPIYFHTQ
# From the text: The co-transfection assay provides a method for identifying functional agonists and partial agonists which mimic, or antagonists which inhibit, the effect of native hormones, and quantifying their activity for responsive IR proteins. In this regard, the co-transfection assay mimics an in vivo system in the laboratory. Importantly, activity in the co-transfection assay correlates very well with known in vivo activity, such that the co-transfection assay functions as a qualitative and quantitative predictor of a tested compounds in vivo pharmacology. See, e.g., T. Berger et al. 41 J. Steroid Biochem. Molec.
# (§1) CV-1 cells (African green monkey kidney fibroblasts) were cultured in the presence of Dulbecco's Modified Eagle Medium (DMEM) supplemented with 10% charcoal resinstripped fetal bovine serum then transferred to 96-well microtiter plates one day prior to transfection.
# The reporter plasmid, MTV-LUC, contains the cDNA for firefly luciferase (LUC) under control of the mouse mammary tumor virus (MTV) long terminal repeat, a conditional promoter containing an androgen response element. See e.g, Berger et al. supra. In addition, pRS-β-Gal, coding for constitutive expression of E. colβ-galactosidase (β-Gal), was included as an internal control for evaluation of transfection efficiency and compound toxicity.
# (§2) Three to four replicates were used for each sample.
# (§3) After 40 hours, the cells were washed with PBS, lysed with a Triton X-100-based buffer and assayed for LUC and β-Gal activities using a luminometer or spectrophotometer, respectively. For each replicate, the normalized response (NR) was calculated as: LUC response/β-Gal rate where β-Gal rate = β-Gal•1x10^-5/β-Gal incubation time.
# [2] = molecular target: T1, human AR; assay: cell-based; type: binding
# [3] = molecular target: T2, PR (Homo sapiens, UniProt P06401); assay: Co-transfection assay, PR agonist mode; type: cell-based; parameters: expressed in transfected cells; host or cells: CV-1 cells
# T2 sequence (P06401 1-933): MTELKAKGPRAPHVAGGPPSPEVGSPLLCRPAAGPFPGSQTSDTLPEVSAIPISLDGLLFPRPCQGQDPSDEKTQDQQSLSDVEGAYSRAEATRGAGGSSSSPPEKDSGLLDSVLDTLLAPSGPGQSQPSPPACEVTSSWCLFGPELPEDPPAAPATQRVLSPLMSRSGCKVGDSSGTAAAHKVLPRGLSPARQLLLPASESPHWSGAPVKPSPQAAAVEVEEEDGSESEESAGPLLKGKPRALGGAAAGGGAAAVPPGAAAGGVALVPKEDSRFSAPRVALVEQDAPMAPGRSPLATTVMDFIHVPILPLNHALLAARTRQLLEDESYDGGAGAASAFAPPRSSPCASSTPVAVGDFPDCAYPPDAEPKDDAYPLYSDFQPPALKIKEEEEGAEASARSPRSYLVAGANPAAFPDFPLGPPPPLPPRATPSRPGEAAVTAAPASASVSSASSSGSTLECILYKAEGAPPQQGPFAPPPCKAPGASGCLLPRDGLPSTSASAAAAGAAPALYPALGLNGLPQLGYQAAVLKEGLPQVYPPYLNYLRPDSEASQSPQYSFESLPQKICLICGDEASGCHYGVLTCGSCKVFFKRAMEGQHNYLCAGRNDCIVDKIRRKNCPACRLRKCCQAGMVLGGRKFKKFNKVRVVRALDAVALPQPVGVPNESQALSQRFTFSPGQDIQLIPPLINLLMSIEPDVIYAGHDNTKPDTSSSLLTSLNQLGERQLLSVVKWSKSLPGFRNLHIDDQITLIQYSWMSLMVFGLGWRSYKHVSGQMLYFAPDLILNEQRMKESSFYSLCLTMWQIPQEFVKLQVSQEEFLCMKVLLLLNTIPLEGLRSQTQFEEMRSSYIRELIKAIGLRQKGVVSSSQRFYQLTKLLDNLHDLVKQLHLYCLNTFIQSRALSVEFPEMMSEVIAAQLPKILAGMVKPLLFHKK
# Procedure: as §1, §2, §3
smiles,measurement,setting,value
"CC1=CC(C)(C)Nc2cc3[nH]c(=O)c(F)c(C(F)(F)F)c3cc21 [Compound 111, 7-Fluoro-1,2-dihydro-2,2,4-trimethyl-6-trifluoromethyl-8-pyridono[5,6-g]quinoline]",AR Antagonist CV-1 Cells Efficacy (%),[1]; na = not active,50%
same,AR agonist/antagonist profile (in words),[1],mixed AR agonists/antagonists
same,AR Agonist CV-1 Cells Efficacy (%),[1]; na = not active,20%
same,Ki,[2],804 nM
"CCC1(CC)CCc2cc3c(C(F)(F)F)c(F)c(=O)[nH]c3cc2N1 [Compound 120, 2,2-Diethyl-7-fluoro-1,2,3,4-tetrahydro-6-trifluoromethyl-8-pyridono[5,6-g]quinoline]",IC50,[1],25 nM
same,AR Antagonist CV-1 Cells Efficacy (%),[1]; na = not active,61%
"CN1c2cc3c(cc2CCC1(C)C)c(C(F)(F)F)c(F)c(=O)n3C [Compound 109, 7-Fluoro-1,2,3,4-tetrahydro-1,2,2,9-tetramethyl-6-trifluoromethyl-8-pyridono[5,6-g]quinoline]",EC50,[1],> 10000 nM
same,IC50,[1],12 nM
same,AR Antagonist CV-1 Cells Efficacy (%),[1]; na = not active,86%
same,AR agonist/antagonist profile (in words),[1],highly selective AR antagonists
same,AR Agonist CV-1 Cells Efficacy (%),[1]; na = not active,"na (not active (i.e. efficacy of <20 and potency of >10,000))"
"CC1CC(C)(C)Nc2cc3[nH]c(=O)c(F)c(C(F)(F)F)c3cc21 (centres unmarked) [Compound 112, 7-Fluoro-1,2,3,4-tetrahydro-2,2,4-trimethyl-6-trifluoromethyl-8-pyridono[5,6-g]quinoline]",AR Antagonist CV-1 Cells Efficacy (%),[1]; na = not active,49%
same,AR agonist/antagonist profile (in words),[1],highly selective AR antagonists
"CC1=CC(C)(C)Nc2c1cc1c(C(F)(F)F)c(F)c(=O)[nH]c1c2C [Compound 114, 7-Fluoro-1,2-dihydro-2,2,4,10-tetramethyl-6-trifluoromethyl-8-pyridono[5,6-g]quinoline]",EC50,[1],> 10000 nM
same,AR Antagonist CV-1 Cells Efficacy (%),[1]; na = not active,90%
same,AR Agonist CV-1 Cells Efficacy (%),[1]; na = not active,"na (not active (i.e. efficacy of <20 and potency of >10,000))"
"CC1CC(C)(C)n2oc(=O)c3c4[nH]c(=O)cc(C(F)(F)F)c4cc1c32 (centres unmarked) [Compound 113, 1,10-[1,3-dihydro-3-oxo-(2,1-isoxazolyl)]-1,2,3,4-tetrahydro-2,2,4,10-tetramethyl-6-trifluoromethyl-8-pyridono[5,6-g]quinoline]",AR Antagonist CV-1 Cells Efficacy (%),[1]; na = not active,48%
same,AR agonist/antagonist profile (in words),[1],mixed AR agonists/antagonists
same,AR Agonist CV-1 Cells Efficacy (%),[1]; na = not active,26%
same,Ki,[2],17 nM
"Cn1c(=O)c(F)c(C(F)(F)F)c2cc3c(cc21)NC(C)(C)CC3 [Compound 107, 7-Fluoro-1,2,3,4-tetrahydro-2,2,9-trimethyl-6-trifluoromethyl-8-pyridono[5,6-g]quinoline]",EC50,[1],> 10000 nM
same,IC50,[1],47 nM
same,AR Antagonist CV-1 Cells Efficacy (%),[1]; na = not active,79%
same,AR Agonist CV-1 Cells Efficacy (%),[1]; na = not active,"na (not active (i.e. efficacy of <20 and potency of >10,000))"
"Cc1c2c(cc3c(C(F)(F)F)c(F)c(=O)[nH]c13)C(C)CC(C)(C)N2 (centres unmarked) [Compound 115, 7-Fluoro-1,2,3,4-tetrahydro-2,2,4,10-tetramethyl-6-trifluoromethyl-8-pyridono[5,6-g]quinoline]",EC50,[1],> 10000 nM
same,IC50,[1],101 nM
same,AR Antagonist CV-1 Cells Efficacy (%),[1]; na = not active,88%
same,AR Agonist CV-1 Cells Efficacy (%),[1]; na = not active,"na (not active (i.e. efficacy of <20 and potency of >10,000))"
"Cc1c2c(cc3c(C(F)(F)F)c(F)c(=O)n(C)c13)C(C)CC(C)(C)N2 (centres unmarked) [Compound 116, 7-Fluoro-1,2,3,4-tetrahydro-2,2,4,9,10-pentamethyl-6-trifluoromethyl-8-pyridono[5,6-g]quinoline]",EC50,[1],> 10000 nM
same,AR Antagonist CV-1 Cells Efficacy (%),[1]; na = not active,20%
same,AR Agonist CV-1 Cells Efficacy (%),[1]; na = not active,"na (not active (i.e. efficacy of <20 and potency of >10,000))"
"Cc1c2c(cc3c(C(F)(F)F)c(F)c(=O)[nH]c13)C(C)CC(C)(C)N2C (centres unmarked) [Compound 117, 7-Fluoro-1,2,3,4-tetrahydro-1,2,2,4,10-pentamethyl-6-trifuluoromethyl-8-pyridono[5,6-g]quinoline]",AR Antagonist CV-1 Cells Efficacy (%),[1]; na = not active,81%
same,AR Agonist CV-1 Cells Efficacy (%),[1]; na = not active,"na (not active (i.e. efficacy of <20 and potency of >10,000))"
same,EC50,"[1]; read-out: AR Agonist CV-1 Cells Potency, agonist potency EC50, na = not active",> 10000 nM
"CC1(C)CCc2cc3c(C(F)F)c(F)c(=O)[nH]c3cc2N1 [Compound 106, 6-Difluoromethyl-7-fluoro-1,2,3,4-tetrahydro-2,2-dimethyl-8-pyridono[5,6-g]quinoline]",EC50,[1],> 10000 nM
same,IC50,[1],60 nM
same,AR Antagonist CV-1 Cells Efficacy (%),[1]; na = not active,83%
same,AR Agonist CV-1 Cells Efficacy (%),[1]; na = not active,"na (not active (i.e. efficacy of <20 and potency of >10,000))"
"Cn1c(=O)c(F)c(C(F)(F)F)c2cc3c(cc21)N1CCCC1(C)CC3 (racemic) [Compound 104, (R/S)-3-Fluoro-6,7,7a,11-tetrahydro-1,7a-dimethyl-4-trifluoromethyl-2-pyridono[5.6-g]pyrrolidino[1,2-a]quinoline]",EC50,[3],> 10000 nM
same,EC50,[1],> 10000 nM
same,AR Antagonist CV-1 Cells Efficacy (%),[1]; na = not active,86%
same,AR Agonist CV-1 Cells Efficacy (%),[1]; na = not active,"na (not active (i.e. efficacy of <20 and potency of >10,000))"
same,EC50,"[1]; read-out: AR Potency Agon, Table 2, na = not active",> 10000 nM
same,Ki,[2],159 nM
